Structures are written as SMILES. Read-outs that look alike come from different tables or passages of the source.

Experiment [1] deals with Akt. Put plainly: Inhibition of Akt phosphorylation in MKN-45 cells (Western blot). It counts as cell-based. Conditions: Homo sapiens, Table 6, 0-1000 nM. The protocol: (§1) 6. Inhibition of Akt Phosphorylation in MKN-45 or NCI-H441 Cells:
(§2) Akt is a serine-threonine kinase and a downstream marker regulated by c-Met kinase via the PI3K pathway. Once phosphorylated, Akt regulates several end processes including cell survival and growth. Cells were treated with 0-1000 nM of test compounds, lysed, and the proteins separated on a 10% SDS-PAGE. Following separation, proteins were transferred onto a nitrocellulose membrane and detected by chemiluminescence after incubation with […] (primary) and rabbit anti-mouse Ab (secondary). Intensity of the bands was determined using ImageJ 1.42q (NIH, USA) and normalized to Actin (loading control).
(§3) Results: The results are provided below as IC50 values in Table 6.

In experiment [2] the target is T1, human recombinant Met kinase (Homo sapiens, UniProt P08581).
T1 construct: purchased Cell Signalling Technology, Beverly, Mass
Put plainly: Colorimetric determination of c-Met kinase activity (HTScan Met Kinase Assay Kit). It counts as biochemical. The note with it: read-out: c-Met Enzyme IC50.

Experiment [3] has as its target T1, human recombinant Met kinase. The experiment is described as above. It counts as biochemical. Conditions: Table 4A; 100 nM (cells without *); read-out: c-Met Enzyme % inhibition @ 100 nM. An outline of the steps: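 Human recombinant Met kinase was preincubated with compound for 5 min at room temperature, then reacted with ATP and biotinylated peptide for 30 min; EDTA stop. Phosphopeptide captured on streptavidin and detected with phospho-tyrosine mAb and europium anti-mouse IgG by time-resolved fluorescence (340/615 nm). Reported as % inhibition or IC50.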

Experiment [4] has as its target T2, c-Met kinase (Homo sapiens, UniProt P08581). The experiment in a line: Inhibition of c-Met kinase phosphorylation in MKN-45 cells (cell based ELISA). Conditions: Table 4D, 1 h incubation. More on the design: endogenous in cells; host or cells: MKN-45. The protocol:
MKN45 cells are a prototype of “c-Met addicted” cells having constitutively activated c-Met kinase similar to that observed in sub-sects of gastric or hepatocellular cancer patients with dysregulated c-Met kinase activity. Inhibition of Met phosphorylation was determined using a cell based ELISA assay according to the following schedule: • Day 1: MKN-45 cells were plated in 96-well plates in complete growth medium. • Day 2: Inhibitors at the desired concentration were added to the plates and incubated for 1 h and lysed subsequently. Lysates were transferred to NUNC Maxisorp plates coated with anti-cMet receptor antibody. Phopho-tyrosine mAb and HRP-lined anti-mouse IgG were used as primary and secondary antibodies respectively. Optical density was measured on a microplate reader (BMG Labtech., Germany) at […]. Inhibition of c-Met phosphorylation in this cell line indicates a therapeutic potential for test compounds in patients diagnosed with cancers caused by aberrant c-Met kinase signalling. Results: The results are provided above in Table 4D as IC50 values.

In experiment [5] the test system is MKN-45 cells. The experiment in a line: Induction of apoptosis in MKN-45 cells (caspase-3 activity). It counts as cell-based, human. Conditions: percentage induction @ 3 μM; caspase-3, MKN-45 cells, 24 h; percent of maximum response. On the procedure:
7. Induction of Apoptosis in MKN-45 Cells: I
Induction of Caspase 3 was measured fluorimetrically. Cells were incubated with desired concentrations of the compound for 24 h. After incubation, cells were harvested and counted. An equal number of viable cells per well (0.3×10^6 cells) were used for determination of caspase-3 activity. Increase in apoptosis manifested by an elevation in caspase-3 levels was determined using a Caspase-3 kit from Millipore. Data are expressed as a percent of the maximum response (100%).
Results: The results are provided below as percentage induction @ 3 μM in Table 7.

Experiment [6] concerns MDA-MB-231 cells. Put plainly: Inhibition of HGF-induced cell proliferation in MDA-MB-231 cells (MTT). It counts as cell-based. The note with it: Homo sapiens, Table 8, HGF (50 ng/ml). The protocol:
8. Inhibition of HGF-Induced Met Phosphorylation in MDA-MB-231 Cells:
MDA-MB-231 is a breast cancer cell line having a high level of c-Met expression. Activation of Met kinase in these cells occurs only after the addition of its natural ligand, Hepatocyte Growth Factor (HGF). Upon binding to the extracellular domain of the enzyme, it triggers phosphorylation of tyrosine residues and regulates several downstream events such as cell proliferation. Cell proliferation assays were carried out using the high Met expressing cell line (MDA-MB-231) according to the following schedule: • Day 1: Cells were plated in 96-well plates in complete growth medium. • Day 2: Media was replaced with starvation medium containing 0.04% BSA. • Day 3: Inhibitors at the desired concentrations and HGF (50 ng/ml) were added. • Day 5: Cell viability was determined using the 3-[4,5-dimethylthiazol-2-yl]-2,5-diphenyltetrazolium bromide (MTT) dye reduction test. […] Results: The results are provided below in Table 8 as IC50 values.

Experiment [7] addresses T2, c-Met kinase. The experiment in a line: Inhibition of c-Met kinase phosphorylation in NCI-H441 cells (cell based ELISA). The note with it: Table 5, 1 h incubation. The protocol:
5. Inhibition of c-Met Kinase Phosphorylation in NCI-H441 Cells:
Inhibition of Met phosphorylation was determined using a cell based ELISA assay according to the following schedule: • Day 1: NCI-H441 cells were plated in 96-well plates in complete growth medium. • Day 2: Inhibitors at the desired concentration were added to the plates, incubated for 1 h and lysed subsequently. Lysates were transferred to NUNC Maxisorp plates coated with anti-cMet receptor antibody. Phopho-tyrosine mAb and HRP-lined anti-mouse IgG were used as primary and secondary antibodies respectively. Optical density was measured on a microplate reader (BMG Labtech., Germany) at […]. […] Results: The results are given below in Table 5 as IC50 values.

For experiment [8], the system named is Akt. The experiment in a line: Inhibition of Akt phosphorylation in NCI-H441 cells (Western blot). It counts as cell-based. The note with it: Homo sapiens, Table 6, 0-1000 nM. On the procedure:
as §1, §2, §3

The test system of experiment [9] is MKN-45. The experiment in a line: Inhibition of MKN-45 proliferation (MTT). It counts as cell-based, human. The note with it: MKN-45 proliferation; for GI50 / inhibition at 0.1 µM: Homo sapiens; for GI50: read-out: MKN45 GI50; for inhibition at 0.1 µM: read-out: MKN45 % inhibition @ 100 nM. In short, it runs like this: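 High-Met human gastric adenocarcinoma MKN-45 cells plated on day 1 and exposed to compound from day 2. Viability measured by MTT dye reduction on day 5; output given as % inhibition at 100 nM and GI50.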

T2 sequence (P08581 25-1390): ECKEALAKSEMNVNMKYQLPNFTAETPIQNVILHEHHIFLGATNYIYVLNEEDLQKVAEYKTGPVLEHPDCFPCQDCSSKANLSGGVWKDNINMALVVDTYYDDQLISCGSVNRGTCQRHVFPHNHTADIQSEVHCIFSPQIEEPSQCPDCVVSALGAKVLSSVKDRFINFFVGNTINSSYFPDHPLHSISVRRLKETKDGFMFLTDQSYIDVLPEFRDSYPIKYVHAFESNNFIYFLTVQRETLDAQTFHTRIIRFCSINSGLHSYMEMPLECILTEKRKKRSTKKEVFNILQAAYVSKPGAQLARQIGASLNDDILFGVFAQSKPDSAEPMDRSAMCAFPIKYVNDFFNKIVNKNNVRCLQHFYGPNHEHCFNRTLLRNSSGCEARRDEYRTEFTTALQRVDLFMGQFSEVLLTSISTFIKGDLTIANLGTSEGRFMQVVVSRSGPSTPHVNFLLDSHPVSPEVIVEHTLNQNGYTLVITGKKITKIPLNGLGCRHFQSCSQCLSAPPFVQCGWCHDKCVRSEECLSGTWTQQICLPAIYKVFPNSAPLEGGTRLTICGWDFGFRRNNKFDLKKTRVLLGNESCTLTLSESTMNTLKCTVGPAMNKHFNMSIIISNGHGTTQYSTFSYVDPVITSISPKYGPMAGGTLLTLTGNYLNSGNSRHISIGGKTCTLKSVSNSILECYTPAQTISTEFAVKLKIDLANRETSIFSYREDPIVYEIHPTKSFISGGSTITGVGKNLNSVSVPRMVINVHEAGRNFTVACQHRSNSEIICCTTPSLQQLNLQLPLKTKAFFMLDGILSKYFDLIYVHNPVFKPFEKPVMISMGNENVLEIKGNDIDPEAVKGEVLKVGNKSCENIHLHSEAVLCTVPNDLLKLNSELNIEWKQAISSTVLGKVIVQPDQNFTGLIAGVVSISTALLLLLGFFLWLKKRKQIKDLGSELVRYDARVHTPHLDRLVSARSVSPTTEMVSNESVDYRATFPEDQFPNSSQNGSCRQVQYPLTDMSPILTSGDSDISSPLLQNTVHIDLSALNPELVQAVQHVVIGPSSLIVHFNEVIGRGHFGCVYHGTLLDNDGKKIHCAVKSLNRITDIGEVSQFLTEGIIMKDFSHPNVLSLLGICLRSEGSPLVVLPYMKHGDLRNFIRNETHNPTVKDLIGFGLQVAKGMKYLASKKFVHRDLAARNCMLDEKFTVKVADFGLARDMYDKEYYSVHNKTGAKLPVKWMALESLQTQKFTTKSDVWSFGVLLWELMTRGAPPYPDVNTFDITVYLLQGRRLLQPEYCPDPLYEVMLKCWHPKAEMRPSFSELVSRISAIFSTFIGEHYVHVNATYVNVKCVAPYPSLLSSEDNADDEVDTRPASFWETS
T1 sequence (P08581 25-1390): as above

Consider `Cc1cc(-c2ccc3nnn(Cc4ccc5ncccc5c4)c3n2)ccc1C(=O)NOCCO` [Example 25, N-(2-hydroxyethoxy)-2-methyl-4-(3-(quinolin-6-ylmethyl)-3H-[1,2,3]triazolo[4,5-b]pyridin-5-yl)benzamide], for which the IC50 is 10 to 25 nM in [1]; 25 to 50 nM in [2] (Table 4A); 25 to 50 nM in [4]; less than 10 nM in experiment [6]; not above 10 nM in experiment [7]; not above 10 nM in experiment [8]. In addition, in [3], the inhibition at 0.1 µM fell in the range of 75 to 100%. Also, in experiment [5], the “% induction of caspase-3 activity” value was “B (B is <75 and ≧50)”. Besides, the GI50 in experiment [9] (MKN-45, Table 4A) was in the range of 25 to 50 nM. In addition, in [9] (Table 4A, 100 nM, 0.1 µM), the “MKN45 % inhibition @ 100 nM” value is listed as “A (A= ≧75 to 100%)”.
On to `CC(C)(O)CONC(=O)c1ccc(-c2ccc3nnn(Cc4ccc5ncccc5c4)c3n2)cc1Cl` [Example 30, 2-chloro-N-(2-hydroxy-2-methylpropoxy)-4-(3-(quinolin-6-ylmethyl)-3H-[1,2,3]triazolo[4,5-b]pyridin-5-yl) benzamide], for which the IC50 in [1] was 25 to 50 nM; in experiment [2] (Table 4A) it was 25 to 50 nM; in experiment [4], 25 to 50 nM; in experiment [6], less than 10 nM; in experiment [7], 10 to 25 nM; in experiment [8] it was not above 10 nM. The inhibition at 0.1 µM in experiment [3] lay in the range of 75 to 100%; in experiment [9] (MKN-45, Table 4A, 100 nM), 75 to 100%. For the same molecule, in experiment [5], the “% induction of caspase-3 activity” value was “B (B is <75 and ≧50)”. Besides, the GI50 in experiment [9] (MKN-45, Table 4A) was 25 to 50 nM.
For `NC(=O)c1c(F)cc(-c2ccc3nnn(Cc4ccc5ncsc5c4)c3n2)cc1F` [Example 1006, 4-(3-(benzo[d]thiazol-6-ylmethyl)-3H-[1,2,3]triazolo[4,5-b]pyridin-5-yl)-2,6-difluorobenzamide], the IC50 in [1] is 25 to 50 nM; in experiment [2] (Table 4C) it was 25 to 50 nM; in [4], 25 to 50 nM; in experiment [6] it was 10 to 50 nM; in experiment [7] it was not above 10 nM; in experiment [8], not above 10 nM. In addition, the “% induction of caspase-3 activity” value in [5] is “B (B is <75 and ≧50)”. The inhibition at 0.1 µM in [9] (MKN-45, Table 4C, 100 nM) lay in the range of 75 to 100%. The GI50 in experiment [9] (MKN-45, Table 4C) was in the range of 25 to 50 nM.

The record behind these values is patent US9815831B2, “3,5-disubstituted-3H-imidazo[4,5-B]pyridine and 3,5-disubstituted-3H-[1,2,3]triazolo[4,5-B] pyridine compounds as modulators of c-Met protein kinases” (Rhizen Pharmaceuticals SA, priority 2012, dated 2017).
